Test results from US6673799B1, “Cyanophenyl derivative” (priority 1998, dated 2004).

Biological target: T1, rat androgen receptor (Rattus norvegicus, UniProt P15207)
T1 construct: The cytosol fraction obtained in the step (1) was adjusted to a protein concentration of 1 mg/ml and used as a rat androgen receptor solution; from tissue; host or cells: rat ventral prostate gland cytosol fraction (male Wistar rats, castrated)
T1 sequence (P15207 1-902): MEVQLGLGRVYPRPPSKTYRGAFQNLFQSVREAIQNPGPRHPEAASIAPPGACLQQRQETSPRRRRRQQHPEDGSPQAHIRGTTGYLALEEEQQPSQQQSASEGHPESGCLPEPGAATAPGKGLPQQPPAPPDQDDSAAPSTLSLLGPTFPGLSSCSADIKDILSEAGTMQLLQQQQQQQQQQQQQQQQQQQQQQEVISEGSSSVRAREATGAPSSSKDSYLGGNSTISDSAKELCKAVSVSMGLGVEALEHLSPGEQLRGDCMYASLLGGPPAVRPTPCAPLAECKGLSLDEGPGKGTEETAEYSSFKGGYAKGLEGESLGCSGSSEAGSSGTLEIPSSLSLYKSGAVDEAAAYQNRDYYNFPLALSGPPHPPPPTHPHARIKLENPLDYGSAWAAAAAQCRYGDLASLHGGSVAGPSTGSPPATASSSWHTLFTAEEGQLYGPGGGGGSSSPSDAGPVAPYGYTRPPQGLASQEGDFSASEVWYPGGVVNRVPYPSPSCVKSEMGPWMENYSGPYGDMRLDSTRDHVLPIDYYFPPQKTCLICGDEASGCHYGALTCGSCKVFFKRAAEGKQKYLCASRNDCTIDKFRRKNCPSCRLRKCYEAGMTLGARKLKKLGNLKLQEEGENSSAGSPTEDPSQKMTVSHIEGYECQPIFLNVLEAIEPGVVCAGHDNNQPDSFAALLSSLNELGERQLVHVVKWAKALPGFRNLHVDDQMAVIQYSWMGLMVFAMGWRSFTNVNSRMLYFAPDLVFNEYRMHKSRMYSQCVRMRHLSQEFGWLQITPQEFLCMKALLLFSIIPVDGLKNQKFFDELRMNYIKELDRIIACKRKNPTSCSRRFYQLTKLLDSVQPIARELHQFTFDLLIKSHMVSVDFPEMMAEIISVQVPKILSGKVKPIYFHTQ
Experiment: biochemical
Details: 3H-mibolerone 1 nM, rat prostate cytosol; Ki calculated from IC50 by Cheng and Prusoff; read-out: Binding activity for rat androgen receptor (Ki = nM)

Row | SMILES | Ki [nM]
1 | C[C@@H]1CN(c2ccc(C#N)c(C(F)(F)F)c2)[C@@H](C)CN1C(=O)Nc1ccnc(Br)c1 [Example 6-1, (2R,5S)-N-(2-Bromo-4-pyridyl)-4-(4-cyano-3-trifluoromethylphenyl)-2,5-dimethylpiperazine-1-carboxamide] | 7.56
2 | C[C@@H]1CN(c2ccc(C#N)c(C(F)(F)F)c2)[C@@H](C)CN1C(=O)Nc1ccc(C#N)nc1 [Example 18-7, (2R,5S)-N-(6-Cyano-3-pyridyl)-4-(4-cyano-3-trifluoromethylphenyl)-2,5-dimethylpiperazine-1-carboxamide] | 6.66
3 | COc1ccc(NC(=O)N2C[C@H](C)N(c3ccc(C#N)c(C(F)(F)F)c3)C[C@H]2C)cn1 [Example 6-13, (2R,5S)-4-(4-Cyano-3-trifluoromethylphenyl)-N-(6-methoxy-3-pyridyl)-2,5-dimethylpiperazine-1-carboxamide] | 3.58
4 | C[C@@H]1CN(c2ccc(C#N)c(C(F)(F)F)c2)[C@@H](C)CN1C(=O)Nc1ccnc(F)c1 [Example 18-8, (2R,5S)-4-(4-Cyano-3-trifluoromethylphenyl)-N-(2-fluoro-4-pyridyl)-2,5-dimethylpiperazine-1-carboxamide] | 15.6
5 | C[C@@H]1CN(c2ccc(C#N)c(C(F)(F)F)c2)[C@@H](C)CN1C(=O)Nc1ccnc(N)n1 [Example 21, (2R,5S)-N-(2-Amino-pyrimidin-4-yl)-4-(4-cyano-3-trifluoromethylphenyl)-2,5-dimethylpiperazine-1-carboxamide] | 1.81
6 | CNC(=O)c1cc(NC(=O)N2C[C@H](C)N(c3ccc(C#N)c(C(F)(F)F)c3)C[C@H]2C)ccn1 [Example 13-1, (2R,5S)-4-(4-Cyano-3-trifluoromethylphenyl)-2,5-dimethyl-N-(2-methylcarbamoyl-4-pyridyl)piperazine-1-carboxamide] | 1.91

System: not given
Experiment: not given
Details: not given

Row | melting point [°C] | SMILES
7 | 208 to 211 | C[C@@H]1CN(C(=O)Nc2ccnc(N)c2)[C@@H](C)CN1c1ccc(C#N)c(C(F)(F)F)c1 (racemic)
8 | 200 to 203 | C[C@@H]1CN(C(=O)Nc2ccc(F)cc2)[C@@H](C)CN1c1ccc(C#N)c(C(F)(F)F)c1 (relative stereo)
9 | 163 to 165 | C[C@@H]1CN(c2ccc(C#N)c(C(F)(F)F)c2)[C@@H](C)CN1C(=O)Nc1ccc(F)nc1
10 | 199 to 200 | CC1(C)CN(c2ccc(C#N)c(C(F)(F)F)c2)CN1C(=O)Nc1ccc(F)cc1
11 | 191 to 193 | CC(=O)Nc1nccc(NC(=O)N2C[C@@H](C)N(c3ccc(C#N)c(C(F)(F)F)c3)C[C@@H]2C)n1 (racemic)
12 | 173 to 175 | C[C@@H]1CN(c2ccc(C#N)c(C(F)(F)F)c2)[C@@H](C)CN1C(=O)N1CC[S+]([O-])CC1 (relative stereo)
13 | 152.5 to 153.5 | C[C@@H]1CN(C(=O)NC(C)(C)c2ccccc2)[C@@H](C)CN1c1ccc(C#N)c(C(F)(F)F)c1 (relative stereo)

Row | SMILES | melting point [°C]
14 | C[C@@H]1CN(c2ccc(C#N)c(C(F)(F)F)c2)[C@@H](C)CN1C(=O)Nc1ccc(C#N)nc1 [Example 18-7, (2R,5S)-N-(6-Cyano-3-pyridyl)-4-(4-cyano-3-trifluoromethylphenyl)-2,5-dimethylpiperazine-1-carboxamide] | 220 to 222
15 | COc1ccc(NC(=O)N2C[C@H](C)N(c3ccc(C#N)c(C(F)(F)F)c3)C[C@H]2C)cn1 [Example 6-13, (2R,5S)-4-(4-Cyano-3-trifluoromethylphenyl)-N-(6-methoxy-3-pyridyl)-2,5-dimethylpiperazine-1-carboxamide] | 184 to 185
